Measured values: the supplement of paper PMC12406974

Tests used:
Assay in all cases: maximum observed lethal fraction; higher = more cell death
U2OS BAX/BAK1 DKO = tested on: U2OS BAX/BAK1 DKO
U2OS BCL2L12-KO = tested on: U2OS BCL2L12-KO
U2OS PTBP1-KO = tested on: U2OS PTBP1-KO
U2OS = tested on: U2OS
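Also: FLICK assay: SYTOX Green fluorescence of dead cells tracked over time after drugging in 96-well plates, with total cell counts taken from Triton X-100 lysed wells.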

| Structure (SMILES) | maximum observed lethal fraction (U2OS BAX/BAK1 DKO; 0.01 µM) | maximum observed lethal fraction (U2OS BAX/BAK1 DKO; 0.0316 µM) | maximum observed lethal fraction (U2OS BAX/BAK1 DKO; 0.1 µM) | maximum observed lethal fraction (U2OS BAX/BAK1 DKO; 0.316 µM) | maximum observed lethal fraction (U2OS BAX/BAK1 DKO; 1 µM) | maximum observed lethal fraction (U2OS BCL2L12-KO; 0.01 µM) | maximum observed lethal fraction (U2OS BCL2L12-KO; 0.0316 µM) | maximum observed lethal fraction (U2OS BCL2L12-KO; 0.1 µM) | maximum observed lethal fraction (U2OS BCL2L12-KO; 0.316 µM) | maximum observed lethal fraction (U2OS BCL2L12-KO; 1 µM) | maximum observed lethal fraction (U2OS PTBP1-KO; 0.01 µM) | maximum observed lethal fraction (U2OS PTBP1-KO; 0.0316 µM) | maximum observed lethal fraction (U2OS PTBP1-KO; 0.1 µM) | maximum observed lethal fraction (U2OS PTBP1-KO; 0.316 µM) | maximum observed lethal fraction (U2OS PTBP1-KO; 1 µM) | maximum observed lethal fraction (U2OS; 0.01 µM) | maximum observed lethal fraction (U2OS; 0.0316 µM) | maximum observed lethal fraction (U2OS; 0.1 µM) | maximum observed lethal fraction (U2OS; 0.316 µM) | maximum observed lethal fraction (U2OS; 1 µM) | other results |
| --- | --- | --- | --- | --- | --- | --- | --- | --- | --- | --- | --- | --- | --- | --- | --- | --- | --- | --- | --- | --- | --- |
| CC(C)[C@]12O[C@H]1[C@@H]1O[C@]13[C@]1(O[C@H]1C[C@H]1C4=C(CC[C@@]13C)C(=O)OC4)[C@@H]2O [Triptolide] | 0.0751 | 0.0882 | 0.0915 | 0.0939 | 0.0919 | 0.073 | 0.378 | 0.23 | 0.282 | 0.309 | 0.085 | 0.24 | 0.206 | 0.223 | 0.286 | 0.161 | 0.621 | 0.521 | 0.616 | 0.638 | maximum observed lethal fraction (U2OS BAX/BAK1 DKO; 0.001 µM): 0.0639; maximum observed lethal fraction (U2OS BAX/BAK1 DKO; 0.00316 µM): 0.067; maximum observed lethal fraction (U2OS BCL2L12-KO; 0.001 µM): 0.0575; maximum observed lethal fraction (U2OS BCL2L12-KO; 0.00316 µM): 0.0652; maximum observed lethal fraction (U2OS PTBP1-KO; 0.001 µM): 0.0668; maximum observed lethal fraction (U2OS PTBP1-KO; 0.00316 µM): 0.0699; maximum observed lethal fraction (U2OS; 0.001 µM): 0.0606; maximum observed lethal fraction (U2OS; 0.00316 µM): 0.0621 |
| CC(C)C[C@@H](C=O)NC(=O)[C@H](CC(C)C)NC(=O)[C@H](CC(C)C)NC(=O)OCc1ccccc1 [MG132] | 0.0534 | 0.0549 | 0.0687 | 0.0897 | 0.337 | 0.0715 | 0.07 | 0.0753 | 0.327 | 0.817 | 0.0698 | 0.0706 | 0.0708 | 0.182 | 0.683 | 0.0559 | 0.0568 | 0.0844 | 0.698 | 0.86 | maximum observed lethal fraction (U2OS BAX/BAK1 DKO; 3.16 µM): 0.434; maximum observed lethal fraction (U2OS BAX/BAK1 DKO; 10 µM): 0.384; maximum observed lethal fraction (U2OS BCL2L12-KO; 3.16 µM): 0.914; maximum observed lethal fraction (U2OS BCL2L12-KO; 10 µM): 0.972; maximum observed lethal fraction (U2OS PTBP1-KO; 3.16 µM): 0.813; maximum observed lethal fraction (U2OS PTBP1-KO; 10 µM): 0.923; maximum observed lethal fraction (U2OS; 3.16 µM): 0.893; maximum observed lethal fraction (U2OS; 10 µM): 0.926 |
| CC(C)C[C@H](NC(=O)[C@H](Cc1ccccc1)NC(=O)c1cnccn1)B(O)O [Bortezomib] | 0.096 | 0.27 | 0.378 | 0.387 | 0.443 | 0.345 | 0.8 | 0.791 | 0.889 | 0.904 | 0.418 | 0.637 | 0.731 | 0.791 | 0.82 | 0.757 | 0.865 | 0.9 | 0.904 | 0.917 | maximum observed lethal fraction (U2OS BAX/BAK1 DKO; 0.001 µM): 0.059; maximum observed lethal fraction (U2OS BAX/BAK1 DKO; 0.00316 µM): 0.0694; maximum observed lethal fraction (U2OS BCL2L12-KO; 0.001 µM): 0.0699; maximum observed lethal fraction (U2OS BCL2L12-KO; 0.00316 µM): 0.0922; maximum observed lethal fraction (U2OS PTBP1-KO; 0.001 µM): 0.0725; maximum observed lethal fraction (U2OS PTBP1-KO; 0.00316 µM): 0.108; maximum observed lethal fraction (U2OS; 0.001 µM): 0.0526; maximum observed lethal fraction (U2OS; 0.00316 µM): 0.193 |
| Nc1ncnc2c1ncn2[C@@H]1O[C@H](CO)C[C@H]1O [Cordycepin] | – | – | 0.0507 | 0.0537 | 0.0531 | – | – | 0.0657 | 0.0642 | 0.064 | – | – | 0.068 | 0.0684 | 0.0659 | – | – | 0.0524 | 0.0543 | 0.0522 | maximum observed lethal fraction (U2OS BAX/BAK1 DKO; 3.16 µM): 0.0551; maximum observed lethal fraction (U2OS BAX/BAK1 DKO; 10 µM): 0.0542; maximum observed lethal fraction (U2OS BAX/BAK1 DKO; 31.6 µM): 0.0698; maximum observed lethal fraction (U2OS BAX/BAK1 DKO; 100 µM): 0.072; maximum observed lethal fraction (U2OS BCL2L12-KO; 3.16 µM): 0.068; maximum observed lethal fraction (U2OS BCL2L12-KO; 10 µM): 0.0693; maximum observed lethal fraction (U2OS BCL2L12-KO; 31.6 µM): 0.0825; maximum observed lethal fraction (U2OS BCL2L12-KO; 100 µM): 0.616; maximum observed lethal fraction (U2OS PTBP1-KO; 3.16 µM): 0.0646; maximum observed lethal fraction (U2OS PTBP1-KO; 10 µM): 0.0665; maximum observed lethal fraction (U2OS PTBP1-KO; 31.6 µM): 0.0847; maximum observed lethal fraction (U2OS PTBP1-KO; 100 µM): 0.517; maximum observed lethal fraction (U2OS; 3.16 µM): 0.0545; maximum observed lethal fraction (U2OS; 10 µM): 0.054; maximum observed lethal fraction (U2OS; 31.6 µM): 0.0774; maximum observed lethal fraction (U2OS; 100 µM): 0.451 |
